Measurements as given in a melting point compilation (Tetko et al.).

Settings: a range is the spread between reports

For CC(=O)NBr, which melting point is on record?
The melting point was 104 °C.

Which melting point does the source give for Nc1cccc(N)n1 here?
The melting point was 120 to 122 °C.

For OCCCO, which melting point is on record?
Its melting point is -27 to -26 °C.

With O=C(O)C=Cc1ccc(Br)cc1 as the molecule, how does the melting point read?
Its melting point is 262 to 263 °C.

Which melting point does the source give for N#CCC(=O)O here?
The melting point was 66 to 67 °C.

With N#CNC(=N)N as the molecule, how does the melting point read?
Its melting point is 208 to 211 °C.

With CCCCCCCCCCCCCCCCCCC as the molecule, how does the melting point read?
Its melting point is 32 to 33 °C.

Which melting point does the source give for CC(C)C(C(C)C)C(C)C here?
The melting point was -82 to -81.7 °C.

For OC/C=C\CO, which melting point is on record?
Its melting point is 4 to 7 °C.

With CC(=O)Oc1ccc(-c2ccc(OC(C)=O)cc2)cc1 as the molecule, how does the melting point read?
Its melting point is 161 to 164 °C.

For ClCCCl, which melting point is on record?
Its melting point is -36 to -35 °C.

With Oc1ccc(Br)cc1Br as the molecule, how does the melting point read?
The melting point was 37 to 40 °C.

Which melting point does the source give for C[Si]1(C)O[Si](C)(C)O[Si](C)(C)O[Si](C)(C)O1 here?
The melting point was 17.5 to 18 °C.

For O=C/C=C/c1ccccc1, which melting point is on record?
The melting point was -8 to -7 °C.

With Oc1c(I)cc(I)cc1I as the molecule, how does the melting point read?
The melting point was 158 to 160 °C.

Which melting point does the source give for CCOC(=O)c1cc2ccccc2[nH]1 here?
Its melting point is 124 °C.

Which melting point does the source give for Cc1ccc2n[nH]nc2c1 here?
The melting point was 81 °C.

With CCOCCOCCOCC as the molecule, how does the melting point read?
The melting point was -45 to -44 °C.

Which melting point does the source give for COc1cc(N)ccc1C here?
The melting point was 56.5 to 58 °C.

For Oc1cc(Cl)cc(Cl)c1, which melting point is on record?
Its melting point is 66 to 68 °C.

Which melting point does the source give for OC/C=C/c1ccccc1 here?
Its melting point is 30 to 34 °C.

Which melting point does the source give for NC(=O)c1ccccc1Cl here?
The melting point was 142 to 143 °C.

Which melting point does the source give for OCC(CO)(CO)CO here?
The melting point was 258 to 262 °C.

With COC(C)(C)C as the molecule, how does the melting point read?
Its melting point is -109 °C.

With Clc1cccnc1Cl as the molecule, how does the melting point read?
Its melting point is 66 to 67 °C.

With CCc1cccc(C)c1 as the molecule, how does the melting point read?
The melting point was -96 to -95.5 °C.

For CCN1C(=O)C=CC1=O, which melting point is on record?
The melting point was 44 to 45.5 °C.

Which melting point does the source give for NCCO here?
The melting point was 10 to 11 °C.

For NCCCCCCN, which melting point is on record?
The melting point was 39 to 41.5 °C.

For BrCCCOc1ccccc1, which melting point is on record?
Its melting point is 10 to 10.7 °C.

Which melting point does the source give for CC(=O)c1cccc([N+](=O)[O-])c1 here?
Its melting point is 78 to 81 °C.

For Nc1ccc2c(c1)Cc1ccccc1-2, which melting point is on record?
Its melting point is 128 to 129 °C.

With Nc1cccc2cnccc12 as the molecule, how does the melting point read?
The melting point was 128 to 129 °C.

With CC(C)C(C)C as the molecule, how does the melting point read?
Its melting point is -129 to -128 °C.

Which melting point does the source give for CC(=O)c1ccc([N+](=O)[O-])cc1 here?
Its melting point is 79 to 81.8 °C.

With CC(O)CNCC(C)O (stereo not given) as the molecule, how does the melting point read?
Its melting point is 42 to 44.5 °C.

Which melting point does the source give for CC(C)(C)c1ccc2oc(-c3ccc(-c4nc5cc(C(C)(C)C)ccc5o4)s3)nc2c1 here?
Its melting point is 199 to 201 °C.

Which melting point does the source give for CCOC(=O)c1ccccc1N here?
Its melting point is 13 to 15 °C.

Which melting point does the source give for Cc1cc(N)nc(C)n1 here?
Its melting point is 183 to 185 °C.

With Cc1ccc(N=C=O)cc1N=C=O as the molecule, how does the melting point read?
Its melting point is 20 to 21 °C.

With O=C(CBr)c1ccccc1 as the molecule, how does the melting point read?
Its melting point is 49 to 50.5 °C.

For CCc1ccc(O)cc1, which melting point is on record?
The melting point was 43 to 47 °C.

For OCc1cccc(CO)c1, which melting point is on record?
Its melting point is 57 to 58 °C.

For COc1ccc(N=C=S)cc1, which melting point is on record?
Its melting point is 18 to 19 °C.

For COc1ccc(C(C)=O)c(OC)c1, which melting point is on record?
The melting point was 40 to 41 °C.

For O=C1CCN(c2ccccc2)N1, which melting point is on record?
Its melting point is 122 to 126 °C.

With CC(=O)c1c[nH]c2ccccc12 as the molecule, how does the melting point read?
Its melting point is 189 to 194 °C.

Which melting point does the source give for Oc1cc(Cl)c(Cl)cc1Cl here?
Its melting point is 65.5 to 69 °C.

For CCCCCCCC(=O)O, which melting point is on record?
The melting point was 15.8 to 17 °C.

For CCC(C)=O, which melting point is on record?
Its melting point is -87 to -86 °C.

For Cc1cccc(C(C)C)c1, which melting point is on record?
Its melting point is -64 to -63.7 °C.

With O=C(O)CCCc1ccc(N(CCCl)CCCl)cc1 as the molecule, how does the melting point read?
The melting point was 64 to 65 °C.

With ClCCCBr as the molecule, how does the melting point read?
Its melting point is -59 to -58.9 °C.

With CF as the molecule, how does the melting point read?
Its melting point is -143 to -142 °C.

For N#CCc1ccc(Br)cc1, which melting point is on record?
The melting point was 47 to 48 °C.

With O=[N+]([O-])c1cccc(CCl)c1 as the molecule, how does the melting point read?
Its melting point is 45 to 47 °C.

Which melting point does the source give for CCC(C)C(C)(C)C (stereo not given) here?
Its melting point is -112 °C.

Which melting point does the source give for OCC(O)COc1ccc(Cl)cc1 (stereo not given) here?
The melting point was 78 to 80 °C.

With CC(=O)Nc1ccc(F)cc1 as the molecule, how does the melting point read?
Its melting point is 152 to 154 °C.

With S=C=Nc1ccc(N=C=S)cc1 as the molecule, how does the melting point read?
Its melting point is 131 to 132 °C.

With O=Cc1ccc(Oc2ccccc2)cc1 as the molecule, how does the melting point read?
The melting point was 24.5 to 25 °C.

With NC(=O)c1ccccc1O as the molecule, how does the melting point read?
Its melting point is 140 to 142 °C.

Which melting point does the source give for CCCCCCCCCCCCCCCCCC(=O)OCC here?
The melting point was 33 to 35 °C.

For NC(=O)c1cc([N+](=O)[O-])cc([N+](=O)[O-])c1, which melting point is on record?
Its melting point is 182 to 184 °C.

With COc1c(F)c(F)c(F)c(F)c1F as the molecule, how does the melting point read?
The melting point was -38 to -37 °C.

For CCCCOc1ccc(O)cc1, which melting point is on record?
Its melting point is 65 to 65.5 °C.

For CC(C)OC(=O)Nc1ccccc1, which melting point is on record?
The melting point was 87.3 to 88 °C.

Which melting point does the source give for Oc1cccc(C(F)(F)F)c1 here?
Its melting point is -2 to -1.8 °C.

With O=C(Cl)c1ccc(F)cc1 as the molecule, how does the melting point read?
Its melting point is 9 to 10 °C.

With O=C(O)C(F)(F)C(F)(F)C(F)(F)C(F)(F)C(F)(F)C(F)(F)C(F)(F)F as the molecule, how does the melting point read?
Its melting point is 54.3 to 55.5 °C.

Which melting point does the source give for O=C(O)c1ccccc1-c1ccc(C(F)(F)F)cc1 here?
Its melting point is 169 to 170 °C.

For O=S(=O)(Cl)Cl, which melting point is on record?
The melting point was -54.1 to -54 °C.

For CCOc1ccccc1, which melting point is on record?
The melting point was -30 to -29.5 °C.

With COc1cccc(C(=O)O)c1 as the molecule, how does the melting point read?
The melting point was 103 to 107 °C.

Which melting point does the source give for Cc1ccc(C)c(Br)c1 here?
Its melting point is 9 to 10 °C.

Which melting point does the source give for COc1cc(OC)c(C(=O)O)cc1OC here?
Its melting point is 144 to 145 °C.

With CC(=O)Nc1ccc(C)cc1 as the molecule, how does the melting point read?
The melting point was 149 to 152 °C.

Which melting point does the source give for CCC(CC)C(C)(C)C here?
Its melting point is -99.3 to -99 °C.

For CCCC(C)(C)C(C)C, which melting point is on record?
Its melting point is -117 °C.

For C=CC(C)(C)CC, which melting point is on record?
The melting point was -134 °C.

Which melting point does the source give for CC(C)CCC(C)(C)C here?
The melting point was -106 °C.

With c1ccc2cnncc2c1 as the molecule, how does the melting point read?
The melting point was 90.5 to 91 °C.

For CC1CC(C)C(C)C1 (stereo not given), which melting point is on record?
Its melting point is -133 to -131 °C.

For Nc1ccc(Cc2ccc(N)cc2)cc1, which melting point is on record?
The melting point was 90 to 92.5 °C.

For CN(C)c1cccc([N+](=O)[O-])c1, which melting point is on record?
Its melting point is 59 to 60.5 °C.

For CC(C)(CO)CO, which melting point is on record?
Its melting point is 125 to 130 °C.

For C#Cc1ccccc1, which melting point is on record?
Its melting point is -45 to -44.8 °C.

For C=CCCl, which melting point is on record?
The melting point was -135 to -134 °C.

For O=C(O)c1cc(Cl)ccc1O, which melting point is on record?
The melting point was 171 to 174 °C.

For CCOC(=O)CCC(=O)OCC, which melting point is on record?
Its melting point is -21 to -20 °C.

For BrCC(Br)CBr, which melting point is on record?
The melting point was 16 to 17 °C.

For O=C(O)c1cccc(F)c1F, which melting point is on record?
Its melting point is 162 to 164 °C.

With CC(C=CC1=C(C)CCCC1(C)C)=CC=CC(C)=CCO as the molecule, how does the melting point read?
Its melting point is 63 to 63.5 °C.

Which melting point does the source give for O=CN1CCOCC1 here?
The melting point was 21 to 22 °C.

Which melting point does the source give for ClCC1CO1 (stereo not given) here?
Its melting point is -57.2 to -57 °C.

Which melting point does the source give for O=C1C(O)=C(Cl)C(=O)C(O)=C1Cl here?
The melting point was 283 to 284 °C.

With O=S(=O)(Cl)c1ccc(Br)cc1 as the molecule, how does the melting point read?
Its melting point is 75 to 76 °C.

Which melting point does the source give for Cc1ccc(-c2cc(C(F)(F)F)nn2-c2ccc(S(N)(=O)=O)cc2)cc1 here?
The melting point was 158 °C.

For CNc1ccc([N+](=O)[O-])cc1, which melting point is on record?
The melting point was 152 to 153 °C.

With Cc1ccc(N)cc1N as the molecule, how does the melting point read?
Its melting point is 97 to 99 °C.

With O=C(C=NO)c1ccccc1 as the molecule, how does the melting point read?
Its melting point is 127 to 129 °C.

With CCC(=O)CC as the molecule, how does the melting point read?
Its melting point is -40 to -39 °C.

Which melting point does the source give for O=C(n1ccnc1)n1ccnc1 here?
Its melting point is 118 to 119 °C.

For CCCCCCCCCCO, which melting point is on record?
The melting point was 6 to 7 °C.

For NC(=O)c1ccc(Br)cc1, which melting point is on record?
Its melting point is 191 to 192 °C.

Which melting point does the source give for CCCCCCCCCCCCCCC here?
The melting point was 9.9 to 10 °C.

With Sc1ccccn1 as the molecule, how does the melting point read?
Its melting point is 127 to 129 °C.

Which melting point does the source give for CC(C)(C)C#N here?
Its melting point is 15 to 17 °C.

Which melting point does the source give for Cc1cc(C)c(Br)c(C)c1 here?
The melting point was -1 to 2 °C.

Which melting point does the source give for CS(=O)(=O)c1ccccc1 here?
The melting point was 86 to 87 °C.

Which melting point does the source give for CC(C)C1CCCC1 here?
The melting point was -111 °C.

Which melting point does the source give for Clc1ccc(Br)cc1Cl here?
The melting point was 24 to 25 °C.

With OCc1c[nH]c2ccccc12 as the molecule, how does the melting point read?
Its melting point is 97.5 to 98 °C.

Which melting point does the source give for CCCc1ccccc1C here?
The melting point was -60.3 to -60 °C.

With O=C(c1ccccc1)c1ccccc1C(F)(F)F as the molecule, how does the melting point read?
The melting point was 60 to 61 °C.

Which melting point does the source give for Clc1cc(Cl)c(Cl)cc1Cl here?
Its melting point is 139 to 140 °C.

For c1ccc2cc3c(ccc4ccccc43)cc2c1, which melting point is on record?
Its melting point is 158 to 160 °C.

With Nc1cccc2ccccc12 as the molecule, how does the melting point read?
The melting point was 48 to 49.2 °C.

Which melting point does the source give for O=C(O)c1ccoc1 here?
Its melting point is 122 °C.

For CCCCCCCCCCC(=O)O, which melting point is on record?
The melting point was 28 to 28.6 °C.

With BrCC(Br)(Br)CBr as the molecule, how does the melting point read?
The melting point was 10.5 to 11 °C.

For O=C(O)C1CSCN1 (stereo not given), which melting point is on record?
The melting point was 195 to 196 °C.

Which melting point does the source give for Clc1cncc(Cl)n1 here?
Its melting point is 54 to 56.5 °C.

With BrC(Br)Br as the molecule, how does the melting point read?
The melting point was 8 to 9 °C.

Which melting point does the source give for CN(C)C(=O)Nc1cccc(C(F)(F)F)c1 here?
The melting point was 164 °C.
